From the supplement of paper PMC10307832

Legend:
Experiment in all cases: relative viability (nuclei count vs DMSO), 5 days (fraction); higher = more cells survive
[1] = compound: Cc1cc(Nc2cc(N3CCN(C)CC3)nc(Sc3ccc(NC(=O)C4CC4)cc3)n2)n[nH]1 [Tozasertib] + CC(=O)Nc1cccc(-n2c(=O)n(C3CC3)c(=O)c3c(Nc4ccc(I)cc4F)n(C)c(=O)c(C)c32)c1 [Trametinib] (partner 0.02 µM)
Outline: (§1)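 Lung cancer cell lines in 1536-well plates got either a single drug or a fixed anchor-drug dose together with five library-drug doses (not always all listed) in √10 steps, by pin tool, on the day after seeding. Nuclei were counted after 5 days, and relative viability is the treated-to-vehicle ratio of nuclei counts. Values are medians of duplicate plates.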

[2] = compound: Cc1cc(Nc2cc(N3CCN(C)CC3)nc(Sc3ccc(NC(=O)C4CC4)cc3)n2)n[nH]1 [Tozasertib] + Cc1nc(Nc2ncc(C(=O)Nc3c(C)cccc3Cl)s2)cc(N2CCN(CCO)CC2)n1 [Dasatinib] (partner 0.075 µM)
Outline: as §1

[3] = compound: Cc1cc(Nc2cc(N3CCN(C)CC3)nc(Sc3ccc(NC(=O)C4CC4)cc3)n2)n[nH]1 [Tozasertib] + NC(=O)Nc1cc(-c2cccc(F)c2)sc1C(=O)N[C@H]1CCCNC1 [AZD7762] (partner 0.2 µM)
Outline: as §1

[4] = compound: Cc1cc(Nc2cc(N3CCN(C)CC3)nc(Sc3ccc(NC(=O)C4CC4)cc3)n2)n[nH]1 [Tozasertib] + O=C(c1cc(Cc2n[nH]c(=O)c3ccccc23)ccc1F)N1CCN(C(=O)C2CC2)CC1 [Olaparib] (partner 8 µM)
Outline: as §1

[5] = compound: Cc1cc(Nc2cc(N3CCN(C)CC3)nc(Sc3ccc(NC(=O)C4CC4)cc3)n2)n[nH]1 [Tozasertib] + CC(C)C[C@H](NC(=O)[C@H](Cc1ccccc1)NC(=O)c1cnccn1)B(O)O [Bortezomib] (partner 0.002 µM)
Outline: as §1

| Cell Line | relative viability ([1]; first compound 0.004 µM) | relative viability ([1]; first compound 0.01265 µM) | relative viability ([1]; first compound 0.04 µM) | relative viability ([1]; first compound 0.1265 µM) | relative viability ([2]; first compound 0.004 µM) | relative viability ([2]; first compound 0.01265 µM) | relative viability ([2]; first compound 0.04 µM) | relative viability ([2]; first compound 0.1265 µM) | relative viability ([3]; first compound 0.004 µM) | relative viability ([3]; first compound 0.01265 µM) | relative viability ([3]; first compound 0.04 µM) | relative viability ([3]; first compound 0.1265 µM) | relative viability ([4]; first compound 0.004 µM) | relative viability ([4]; first compound 0.01265 µM) | relative viability ([4]; first compound 0.04 µM) | relative viability ([4]; first compound 0.1265 µM) | relative viability ([5]; first compound 0.004 µM) | relative viability ([5]; first compound 0.01265 µM) | relative viability ([5]; first compound 0.04 µM) | relative viability ([5]; first compound 0.1265 µM) |
| --- | --- | --- | --- | --- | --- | --- | --- | --- | --- | --- | --- | --- | --- | --- | --- | --- | --- | --- | --- | --- |
| LK-2 | 0.859 | 0.646 | 0.739 | 0.353 | 0.262 | 0.39 | 0.285 | 0.23 | 0.466 | 0.54 | 0.624 | 0.138 | 0.753 | 0.715 | 0.77 | 0.326 |  |  |  |  |
| ChaGo-K-1 | 0.879 | 0.838 | 0.895 | 0.736 | 0.624 | 0.616 | 0.648 | 0.398 | 0.902 | 0.851 | 0.859 | 0.576 | 0.4 | 0.386 | 0.407 | 0.372 | 1.17 | 0.953 | 1.14 | 0.31 |
| HOP-62 | 0.356 | 0.401 | 0.401 | 0.372 | 0.676 | 0.615 | 0.672 | 0.668 | 0.505 | 0.485 | 0.613 | 0.289 | 0.699 | 0.436 | 0.458 | 0.288 | 0.735 | 0.713 | 0.404 | 0.67 |
| NCI-H2023 | 0.557 | 0.455 | 0.535 | 0.425 | 0.562 | 0.506 | 0.572 | 0.318 |  |  |  |  | 0.486 | 0.459 | 0.553 | 0.342 | 1.2 | 0.905 | 1.16 |  |
| COR-L23 | 0.613 | 0.599 | 0.609 | 0.332 | 0.521 | 0.547 | 0.479 | 0.245 |  |  |  |  | 0.375 | 0.378 | 0.3 | 0.299 | 0.986 | 0.889 | 0.888 | 0.864 |
| SW 1573 | 0.521 | 0.652 | 0.569 | 0.179 | 0.505 | 0.43 | 0.361 | 0.0939 |  |  |  |  | 0.479 | 0.452 | 0.456 | 0.208 | 1.15 | 1.07 | 1.22 | 0.744 |
| NCI-H358 | 0.137 | 0.0985 | 0.132 | 0.0814 | 0.154 | 0.152 | 0.187 | 0.121 | 0.393 |  | 0.475 | 0.227 | 0.555 | 0.562 | 0.56 | 0.187 |  |  |  |  |
| NCI-H1650 | 0.482 | 0.58 | 0.624 | 0.175 | 0.311 | 0.377 |  | 0.167 |  |  |  |  | 0.818 | 0.721 | 0.885 | 0.722 | 0.202 | 0.207 | 0.24 | 0.2 |
| COR-L 105 | 0.436 | 0.393 | 0.461 | 0.329 | 0.352 | 0.291 | 0.32 | 0.214 |  |  |  |  | 0.681 | 0.725 | 0.716 | 0.754 | 0.879 | 0.815 | 0.943 | 0.291 |
| NCI-H1703 |  |  |  |  |  |  |  |  | 0.0927 |  | 0.126 | 0.12 | 0.492 | 0.391 | 0.476 | 0.45 | 0.41 | 0.29 | 0.401 | 0.222 |
| A549 |  |  |  |  |  |  |  |  |  |  |  |  | 0.2 | 0.324 | 0.313 | 0.13 |  |  |  |  |
| NCI-H1944 | 0.396 | 0.392 | 0.446 | 0.306 | 0.217 | 0.217 | 0.206 | 0.147 | 0.403 | 0.479 | 0.443 | 0.327 | 0.406 | 0.38 | 0.398 | 0.287 |  |  |  |  |
| SK-LU-1 | 0.447 | 0.505 | 0.567 | 0.461 | 0.183 | 0.191 | 0.188 | 0.146 |  |  |  |  | 0.466 | 0.455 | 0.432 | 0.518 | 1.18 | 1.07 | 1.27 | 0.813 |
| ABC-1 |  |  |  |  | 0.494 | 0.535 | 0.577 | 0.258 | 1.01 | 0.789 |  | 1.16 | 0.832 | 0.704 | 0.394 | 0.613 | 0.278 | 0.282 | 0.3 | 0.231 |
| NCI-H2170 | 0.896 | 0.904 | 0.94 | 0.818 | 0.565 | 0.501 | 0.546 | 0.445 | 0.81 | 0.893 | 0.848 | 0.788 | 0.566 | 0.636 | 0.572 | 0.519 |  |  |  |  |
| SK-MES-1 | 0.589 | 0.557 | 0.713 | 0.616 | 0.358 | 0.336 | 0.342 | 0.356 |  |  |  |  | 0.791 | 0.666 | 0.71 | 0.657 |  |  |  |  |
| NCI-H2228 | 0.485 | 0.503 | 0.513 | 0.345 | 0.493 | 0.493 | 0.546 | 0.232 |  |  |  |  | 0.616 | 0.511 | 0.622 | 0.366 | 1.31 |  |  | 0.434 |
| NCI-H2009 | 0.288 | 0.288 | 0.341 | 0.216 | 0.307 | 0.292 | 0.266 | 0.213 |  |  |  |  | 0.739 | 0.69 | 0.692 | 0.698 | 1.12 | 0.938 | 1.08 | 0.811 |
| NCI-H520 | 0.673 | 0.645 | 0.765 | 0.243 | 0.265 | 0.203 | 0.209 | 0.138 |  |  |  |  | 0.285 | 0.316 |  | 0.272 | 0.555 | 0.585 | 0.852 | 0.255 |
| NCI-H1395 | 1.1 | 0.972 | 1.07 | 0.638 | 0.423 | 0.343 | 0.438 | 0.357 | 0.385 | 0.414 | 0.389 | 0.397 | 0.435 | 0.492 | 0.407 | 0.414 |  |  |  |  |
| NCI-H2342 | 0.77 | 0.969 | 0.849 | 0.897 | 0.338 | 0.293 | 0.314 | 0.292 | 0.578 | 0.532 | 0.514 | 0.398 | 0.43 | 0.44 | 0.471 | 0.443 |  |  |  |  |
